From patent publication US20250214978A1, “AT2R AGONIST” (WUHAN HUMANWELL INNOVATIVE DRUG RESEARCH AND DEVELOPMENT …, priority 2022, published 2025) come the findings set out here.

What is called IC50 is the concentration that gives 50% inhibition.

For this test, the target named is AT2R (Homo sapiens (Human), UniProt P50052). Description: Binding assay of compounds to AT2R (Tag-lite HTRF ligand binding kit). Conditions: 1 hour incubation at room temperature. Here is the method:
The assay was performed in accordance with the instruction manual of Angiotensin AT2 Receptor Ligand Binding Assay Kit (#C1TT1AT2, Cisbio). First, a compound stock solution (10 mM) was diluted in a gradient at a 5× dilution ratio (including 10 concentrations, each with two replicates). 160 nL of compounds at different concentrations was added to a 384-well plate. 40 μL of 1×TLB was added to each well, and the mixture was shaken at room temperature for 15 minutes. 15 mL centrifuge tube added with 5 mL of 1×TLB was prepared in advance. The frozen labeled cells were thawed in a water bath at 37° C. (for 1 to 2 minutes), and the thawed cells were quickly transferred to the above 15 mL centrifuge tube. The mixture was mixed well and centrifuged at 1,000 g at room temperature for 5 minutes. The supernatant was removed, and the cells were resuspended by adding 2.7 mL 1×TLB. A new 384-well plate was taken, and 10 μL of mixed cells were added into the corresponding wells according to the assay design. 5 μL of 4× compound solution and 5 μL of 4× Tag-lite red fluorescent labeled ligand were added to each well. After incubation at room temperature for 1 hour, data were read using EnVision with an HTRF mode. The excitation light intensities at 665 nM and 615 nM in each well were read respectively, and the ratio was calculated (Ratio=A665nMIB615 nM). The IC50 value was calculated by means of GraphPad Prism8 software, where X represents logarithmic value of compound concentration; and Y represents ratio of A665 nM/B615 nM.

Chain of AT2R (P50052 whole entry): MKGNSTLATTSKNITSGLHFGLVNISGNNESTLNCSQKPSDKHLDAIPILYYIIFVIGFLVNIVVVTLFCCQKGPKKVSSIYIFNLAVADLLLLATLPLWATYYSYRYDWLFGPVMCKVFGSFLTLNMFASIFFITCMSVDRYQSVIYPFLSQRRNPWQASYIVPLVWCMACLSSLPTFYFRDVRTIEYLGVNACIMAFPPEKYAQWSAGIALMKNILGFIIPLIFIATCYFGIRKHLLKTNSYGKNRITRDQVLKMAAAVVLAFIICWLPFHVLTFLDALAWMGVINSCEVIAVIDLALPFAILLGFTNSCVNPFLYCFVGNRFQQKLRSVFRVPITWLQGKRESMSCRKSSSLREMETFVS

For `CCCCOC(=O)NS(=O)(=O)c1sc(CC(C)C)cc1-c1ccc(Cn2ccnc2)cc1C` [Compound I-1, Butyl ((3-(4-((1H-imidazol-1-yl)methyl)-2-methylphenyl)-5-isobutylthiophen-2-yl)sulfonyl)carbamate], the IC50 was determined as 4.28 nM.
Consider `CCCCOC(=O)NS(=O)(=O)c1sc(CC(C)C)cc1-c1ccc(Cn2ccnc2)c(C)c1` [Compound I-2, Butyl ((3-(4-((1H-imidazol-1-yl)methyl)-3-methylphenyl)-5-isobutylthiophen-2-yl)sulfonyl)carbamate], for which the 50% inhibitory concentration (IC50) was determined as 3.32 nM.
Take `CCCCOC(=O)NS(=O)(=O)c1sc(CC(C)C)cc1-c1ccc(Cn2ccnc2)cc1C#N` [Compound I-3, Butyl ((3-(4-((1H-imidazol-1-yl)methyl)-2-cyanophenyl)-5-isobutylthiophen-2-yl)sulfonyl)carbamate]: the concentration for half-maximal inhibition (IC50) came to 3.95 nM.
Next, `CCCCOC(=O)NS(=O)(=O)c1sc(CC(C)C)cc1-c1ccc(Cn2ccnc2)c(C#N)c1` [Compound I-4, Butyl ((3-(4-((1H-imidazol-1-yl)methyl)-3-cyanophenyl)-5-isobutylthiophen-2-yl)sulfonyl)carbamate]: 3.54 nM.
Regarding `CCCCOC(=O)NS(=O)(=O)c1sc(CC(C)C)cc1-c1ccc(Cn2ccnc2)nc1` [Compound I-6, Butyl ((3-(6-((1H-imidazol-1-yl)methyl)pyridin-3-yl)-5-isobutylthiophen-2-yl)sulfonyl)carbamate], the IC50 was 11.4 nM.
Consider `CCCCOC(=O)NS(=O)(=O)c1sc(CC(C)C)cc1-c1ccc(C(C)n2ccnc2)cc1` (stereo not shown) [Compound I-7, Butyl ((3-(4-(1-(1H-imidazol-1-yl)ethyl)phenyl)-5-isobutylthiophen-2-yl)sulfonyl)carbamate], for which the concentration for half-maximal inhibition (IC50) amounted to 3.8 nM.
The value for `CCCCOC(=O)NS(=O)(=O)c1sc(CC(C)C)c(C)c1-c1ccc(Cn2ccnc2)cc1` [Compound I-8, Butyl ((3-(4-((1H-imidazol-1-yl)methyl)phenyl)-5-isobutyl-4-methylthiophen-2-yl)sulfonyl)carbamate] was 4.4 nM.
As to `COC(=O)NS(=O)(=O)c1sc(CC(C)C)cc1-c1ccc(Cn2ccnc2C)cc1C#N` [Compound I-10, Methyl (3-(2-cyano-4-((2-methyl-1H-imidazol-1-yl)methyl)phenyl)-5-isobutylthiophen-2-yl)sulfonylcarbamate], the IC50 is 2.15 nM.
`COC(=O)NS(=O)(=O)c1sc(CC(C)C)cc1-c1ccc(Cn2ccnc2C(C)(C)C)cc1C#N` [Compound I-17, Methyl (3-(4-((2-(tert-butyl)-1H-imidazol-1-yl)methyl)-2-cyanophenyl)-5-isobutylthiophen-2-yl)sulfonylcarbamate]: the IC50 was determined as 2.09 nM.
The value for `Cc1nccn1Cc1ccc(-c2cc(CC(C)C)sc2S(=O)(=O)NC(=O)NCCC(F)(F)F)c(C#N)c1` [Compound I-18, 3-(2-cyano-4-((2-methyl-1H-imidazol-1-yl)methyl)phenyl)-5-isobutyl-N-((3,3,3-trifluoropropyl)carbamoyl)thiophene-2-sulfonamide] was 1.63 nM; that for `Cc1cc(Cn2ccnc2C)ccc1-c1cc(CC(C)C)sc1S(=O)(=O)NC(=O)NCc1ccccn1` [Compound I-19, 5-isobutyl-3-(2-methyl-4-((2-methyl-1H-imidazol-1-yl)methyl)phenyl)-N-((pyridin-2-ylmethyl)carbamoyl)thiophene-2-sulfonamide] was 1 nM.
`COC(=O)NS(=O)(=O)c1sc(CC(C)C)cc1-c1ccc(Cn2ccnc2C)c(C)c1` [Compound I-21, Methyl ((5-isobutyl-3-(3-methyl-4-((2-methyl-1H-imidazol-1-yl)methyl)phenyl)thiophen-2-yl)sulfonyl)carbamate] gave a half-inhibitory concentration (IC50) of 2.73 nM.
With `CCNC(=O)NS(=O)(=O)c1sc(CC(C)C)cc1-c1ccc(Cn2ccnc2C)c(C)c1` [Compound I-22, N-(ethylcarbamoyl)-5-isobutyl-3-(3-methyl-4-((2-methyl-1H-imidazol-1-yl)methyl)phenyl)thiophene-2-sulfonamide], the IC50 turned out to be 7.28 nM.
`Cc1cc(-c2cc(CC(C)C)sc2S(=O)(=O)NC(=O)NCCO)ccc1Cn1ccnc1C` [Compound I-23, N-((2-hydroxyethyl)carbamoyl)-5-isobutyl-3-(3-methyl-4-((2-methyl-1H-imidazol-1-yl)methyl)phenyl)thiophene-2-sulfonamide] registered an IC50 of 11.3 nM.
On to `COC(=O)NS(=O)(=O)c1sc(CC(C)C)cc1-c1ccc(Cn2ccnc2C)c(C#N)c1` [Compound I-24, Methyl ((3-(3-cyano-4-((2-methyl-1H-imidazol-1-yl)methyl)phenyl)-5-isobutylthiophen-2-yl)sulfonyl)carbamate], for which the IC50 came out at 1.51 nM.
Next, `COC(=O)NS(=O)(=O)c1sc(CC(C)C)cc1-c1ccc(Cn2ccnc2C(C)(C)C)cc1C` [Compound I-25, Methyl ((3-(4-((2-(tert-butyl)-1H-imidazol-1-yl)methyl)-2-methylphenyl)-5-isobutylthiophen-2-yl)sulfonyl)carbamate]: 5.65 nM.
Next, `COC(=O)NS(=O)(=O)c1sc(CC(C)C)c(C)c1-c1ccc(Cn2ccnc2C(C)(C)C)cc1` [Compound I-26, Methyl ((3-(4-((2-(tert-butyl)-1H-imidazol-1-yl)methyl)phenyl)-5-isobutyl-4-methylthiophen-2-yl)sulfonyl)carbamate]: 3.76 nM; `COC(=O)NS(=O)(=O)c1sc(CC(C)C)cc1-c1ccc(Cn2ccnc2C(C)C)c(C#N)c1` [Compound I-27, Methyl ((3-(3-cyano-4-((2-isopropyl-1H-imidazol-1-yl)methyl)phenyl)-5-isobutylthiophen-2-yl)sulfonyl)carbamate]: 3.35 nM; `CCOC(=O)NS(=O)(=O)c1sc(CC(C)C)c(C)c1-c1ccc(Cn2ccnc2C)cc1` [Compound I-28, Ethyl ((5-isobutyl-4-methyl-3-(4-((2-methyl-1H-imidazol-1-yl)methyl)phenyl)thiophen-2-yl)sulfonyl)carbamate]: 4.06 nM.
Turning to `CCCOC(=O)NS(=O)(=O)c1sc(CC(C)C)c(C)c1-c1ccc(Cn2ccnc2C)cc1` [Compound I-29, Propyl ((5-isobutyl-4-methyl-3-(4-((2-methyl-1H-imidazol-1-yl)methyl)phenyl)thiophen-2-yl)sulfonyl)carbamate], the IC50 amounted to 4.5 nM.
Turning to `CCCCOC(=O)NS(=O)(=O)c1sc(CC(C)C)c(C)c1-c1ccc(Cn2ccnc2C)cc1` [Compound I-31, Butyl ((5-isobutyl-4-methyl-3-(4-((2-methyl-1H-imidazol-1-yl)methyl)phenyl)thiophen-2-yl)sulfonyl)carbamate], the IC50 stood at 4.86 nM.
The value for `CCc1nccn1Cc1ccc(-c2c(S(=O)(=O)NC(=O)OC)sc(CC(C)C)c2C)cc1` [Compound I-32, Methyl ((3-(4-((2-ethyl-1H-imidazol-1-yl)methyl)phenyl)-5-isobutyl-4-methylthiophen-2-yl)sulfonyl)carbamate] was 1.32 nM.
The compound `COC(=O)NS(=O)(=O)c1sc(CC(C)C)c(C)c1-c1ccc(Cn2ccnc2C(C)C)cc1` [Compound I-33, Methyl ((5-isobutyl-3-(4-((2-isopropyl-1H-imidazol-1-yl)methyl)phenyl)-4-methylthiophen-2-yl)sulfonyl)carbamate] returned a 50% inhibitory concentration (IC50) of 1.61 nM.
Regarding `COC(=O)NS(=O)(=O)c1sc(CC(C)C)c(C)c1-c1ccc(Cn2ccnc2C)c(C)c1` [Compound I-35, Methyl ((5-isobutyl-4-methyl-3-(3-methyl-4-((2-methyl-1H-imidazol-1-yl)methyl)phenyl)thiophen-2-yl)sulfonyl)carbamate], the IC50 was found to be 3.4 nM.
In turn, `CCCCOC(=O)NS(=O)(=O)c1sc(CC(C)C)cc1-c1ccc(Cn2ccnc2C)cc1C` [Compound I-36, Butyl ((5-isobutyl-3-(2-methyl-4-((2-methyl-1H-imidazol-1-yl)methyl)phenyl)thiophen-2-yl)sulfonyl)carbamate] showed an IC50 of 2.39 nM.
